Assay results as given in PMC12655351, “Synthesis and Anticancer Activity Evaluation of New 5-((5-Nitrofuran-2-yl)allylidene)-2-thioxo-4-thiazolidinones” (Pharmaceuticals, 2025).

What was measured:
T-47D = assay: cells; conditions: Homo sapiens, T47D, 48 h; for GI50: T-47D; for CC50: read-out: LC50
TK-10 [1] = assay: cells; conditions: Homo sapiens, TK-10, 48 h; for CC50: read-out: LC50, TK-10, 48 h
[2] = test system: Non-small cell lung cancer; assay: cells; conditions: Homo sapiens; for GI50: read-out: MG_MID GI50; for CC50: read-out: MG_MID LC50
HL-60(TB) = assay: NCI-60 SRB screen; conditions: for TGI / GI50: HL-60(TB), 48 h
TK-10 [3] = conditions: TK-10, 48 h
DLD-1 = assay: MTT assay; assay type: cell-based; conditions: Homo sapiens; DLD-1, 24 h of treatment
Method: (§1) The NCI-60 screening protocol utilizes the sulforhodamine B (SRB) assay following 48 h of compound exposure. […] The MTT assay was performed on eleven cancer cell lines: human breast cancer (MDA-MB-231, MCF-7, HCC 1954), human gastric cancer (AGS), human colorectal adenocarcinoma (HT-29, DLD-1, HCT 116), human neuroblastoma (SH SY5Y), and human leukemia (JURKAT, RMPI 8866, K-562) cell lines. The study was conducted in triplicate at the following seven concentrations: 0.62, 1.25, 2.5, 5, 10, 20, and 40 μM.
(§2) The selected cell lines were seeded into 96-well plates and cultured in accordance with the previously described methodology. Then, the cells were treated with all tested compounds and DOX at concentrations of 0.625, 1.25, 2.5, 5.0, 10.0, 20.0, and 40.0 μM for 24 h. A solution of 3-(4,5-dimethyl-2-thiazolyl)-2,5-diphenyl-2H-tetrazolium bromide (Sigma-Aldrich, St. Louis, MO, USA) in phosphate-buffered saline without calcium and magnesium (Corning, Kennebunk, ME, USA) at a concentration of 5 mg/mL was used to carry out MTT assay. After incubation, 20 μL of the prepared MTT solution was added, and then the cells were incubated at 37 °C for two hours. Afterwards, the cells were lysed using 100 μL of lysing buffer (comprising 25 mM HCl, 2% acetic acid, 3% DMF, and 5% SDS, with a pH of 4.7). The absorbance was determined at a wavelength of 570 nm using an Absorbance 96 microplate reader (Byonoy GmbH, Hamburg, Germany).

MDA-MB-231 = assay: MTT assay; assay type: cell-based; conditions: Homo sapiens; MDA-MB-231, 24 h of treatment
Method: as §1, §2

MCF-7 = assay: MTT assay; assay type: cell-based; conditions: Homo sapiens, MCF7; MCF-7, 24 h of treatment
Method: as §1, §2

RPMI 8866 = assay: MTT assay; assay type: cell-based; conditions: Homo sapiens; RPMI 8866, 24 h of treatment
Method: as §1, §2

AGS = assay: MTT assay; assay type: cell-based; conditions: Homo sapiens, 24 h of treatment
Method: as §1, §2

Jurkat = assay: MTT assay; assay type: cell-based; conditions: Homo sapiens, 24 h of treatment
Method: as §1, §2

HCT-116 = assay: MTT assay; assay type: cell-based; conditions: Homo sapiens; HCT-116, 24 h of treatment
Method: as §1, §2

HT-29 = assay: MTT assay; assay type: cell-based; conditions: Homo sapiens; HT-29, 24 h of treatment
Method: as §1, §2

HCC-1954 = assay: MTT assay; assay type: cell-based; conditions: Homo sapiens, HCC1954; HCC-1954, 24 h of treatment
Method: as §1, §2

SH SY5Y = assay: MTT assay; assay type: cell-based; conditions: Homo sapiens, 24 h of treatment
Method: as §1, §2

K562 = assay: MTT assay; assay type: cell-based; conditions: Homo sapiens; K562, 24 h of treatment
Method: as §1, §2

SK-MEL-28 = assay: cells; conditions: Homo sapiens, SK-MEL-28, 48 h; for CC50: read-out: LC50, SK-MEL-28, 48 h
HOP-92 = assay: NCI-60 SRB screen; conditions: HOP-92, 48 h; for GI50 / CC50: Homo sapiens; for CC50: read-out: LC50, HOP-92, 48 h
CCRF-CEM [4] = conditions: 48 h
MOLT-4 [5] = assay: cells; conditions: Homo sapiens, MOLT-4, 48 h; for CC50: read-out: LC50, MOLT-4, 48 h
DU-145 = conditions: DU-145, 48 h
786-0 = conditions: 786-0, 48 h
MOLT-4 [6] = conditions: MOLT-4, 48 h
RPMI-8226 = conditions: RPMI-8226, 48 h
NCI/ADR-RES = assay: cells; conditions: Homo sapiens, 48 h; for CC50: read-out: LC50, NCI/ADR-RES, 48 h
OVCAR-5 = assay: NCI-60 SRB screen; conditions: OVCAR-5, 48 h; for GI50: Homo sapiens
CCRF-CEM [7] = assay: cells; conditions: Homo sapiens, 48 h
EKVX = assay: NCI-60 SRB screen; conditions: 48 h; for GI50 / CC50: Homo sapiens; for CC50: read-out: LC50, EKVX, 48 h
CNS cancer = assay: cells; conditions: Homo sapiens; for GI50: read-out: MG_MID GI50; for CC50: read-out: MG_MID LC50
SK-MEL-2 = assay: NCI-60 SRB screen; conditions: SK-MEL-2, 48 h; for GI50 / CC50: Homo sapiens; for CC50: read-out: LC50, SK-MEL-2, 48 h
SW-620 = assay: NCI-60 SRB screen; conditions: SW-620, 48 h

SMILES: O=C(O)CCN1C(=O)/C(=C/C=C/c2ccc([N+](=O)[O-])o2)SC1=S [12b, 3-((Z)-5-((E)-3-(5-Nitrofuran-2-yl)allylidene)-4-oxo-2-thioxothiazolidin-3-yl)propanoic acid]
- GI50 (T-47D): 0.94 µM
- CC50 (T-47D): > 100 µM
- GI50 (TK-10 [1]): 2.02 µM
- CC50 (TK-10 [1]): 7.19 µM
- GI50 [2]: 2.59 µM
- CC50 [2]: 25.9 µM
- TGI (HL-60(TB)): 3.30 µM
- GI50 (HL-60(TB); Homo sapiens, HL-60, 48 h): 1.28 µM
- TGI (TK-10 [3]): 3.81 µM
- IC50 (DLD-1): 3.31 µM
- IC50 (MDA-MB-231): 12.9 µM
- IC50 (MCF-7): 3.01 µM
- IC50 (RPMI 8866): 7.78 µM
- IC50 (AGS): 3.65 µM
- IC50 (Jurkat): 1.77 µM
- IC50 (HCT-116): 3.68 µM
- IC50 (HT-29): 8.56 µM
- IC50 (HCC-1954): 4.86 µM
- IC50 (SH SY5Y): 13.1 µM
- IC50 (K562): 7.15 µM
- GI50 (SK-MEL-28): 1.57 µM
- CC50 (SK-MEL-28): 5.93 µM
- TGI (HOP-92): 3.50 µM
- GI50 (HOP-92): 1.83 µM
- CC50 (HOP-92): 6.72 µM
- TGI (CCRF-CEM [4]): 0.87 µM
- GI50 (MOLT-4 [5]): 0.58 µM
- CC50 (MOLT-4 [5]): > 100 µM
- TGI (DU-145): 10.6 µM
- TGI (786-0): 3.54 µM
- TGI (MOLT-4 [6]): 2.56 µM
- TGI (RPMI-8226): 4.48 µM
- GI50 (NCI/ADR-RES): 1.21 µM
- CC50 (NCI/ADR-RES): 24.8 µM
- GI50 (OVCAR-5): 1.99 µM
- TGI (OVCAR-5): 3.70 µM
- GI50 (CCRF-CEM [7]): 0.25 µM
- TGI (EKVX): 9.26 µM
- GI50 (EKVX): 2.69 µM
- CC50 (EKVX): 31.1 µM
- GI50 (CNS cancer): 1.62 µM
- CC50 (CNS cancer): 12.3 µM
- GI50 (SK-MEL-2): 1.44 µM
- CC50 (SK-MEL-2): 5.68 µM
- TGI (SK-MEL-2): 2.86 µM
- TGI (SW-620): 19.8 µM

SMILES: O=C(O)C(c1ccccc1)N1C(=O)/C(=C/C=C/c2ccc([N+](=O)[O-])o2)SC1=S (stereo not shown) [9b, 2-((Z)-5-((E)-3-(5-Nitrofuran-2-yl)allylidene)-4-oxo-2-thioxothiazolidin-3-yl)-2-phenylacetic acid]
- GI50 (T-47D): 11.1 µM
- CC50 (T-47D): > 100 µM
- GI50 (TK-10 [1]): 16.1 µM
- CC50 (TK-10 [1]): 55.9 µM
- GI50 [2]: 11.1 µM
- CC50 [2]: 73.2 µM
- TGI (HL-60(TB)): 42.2 µM
- GI50 (HL-60(TB); Homo sapiens, HL-60, 48 h): 14.8 µM
- CC50 (HL-60(TB); Homo sapiens, HL-60, 48 h, read-out: LC50, HL-60(TB), 48 h): > 100 µM
- TGI (TK-10 [3]): 30.0 µM
- IC50 (DLD-1): 12.3 µM
- IC50 (MDA-MB-231): 36.7 µM
- IC50 (MCF-7): 14.1 µM
- IC50 (RPMI 8866): 5.54 µM
- IC50 (AGS): 12.9 µM
- IC50 (Jurkat): 2.51 µM
- IC50 (HCT-116): 11.7 µM
- IC50 (HT-29): 20 µM
- IC50 (HCC-1954): 20.6 µM
- IC50 (SH SY5Y): 20.1 µM
- IC50 (K562): 37.6 µM
- GI50 (SK-MEL-28): 10.7 µM
- CC50 (SK-MEL-28): 51.1 µM
- TGI (HOP-92): 27.5 µM
- GI50 (HOP-92): 13.4 µM
- CC50 (HOP-92): 56.2 µM
- TGI (CCRF-CEM [4]): 13.3 µM
- GI50 (MOLT-4 [5]): 12.1 µM
- CC50 (MOLT-4 [5]): > 100 µM
- TGI (DU-145): 23.7 µM
- TGI (786-0): 12.8 µM
- TGI (MOLT-4 [6]): 39.9 µM
- TGI (RPMI-8226): 12.7 µM
- GI50 (NCI/ADR-RES): 13.5 µM
- CC50 (NCI/ADR-RES): 84.9 µM
- GI50 (OVCAR-5): 12.7 µM
- TGI (OVCAR-5): 25.8 µM
- GI50 (CCRF-CEM [7]): 3.12 µM
- TGI (EKVX): 28.1 µM
- GI50 (EKVX): 14.3 µM
- CC50 (EKVX): 55.1 µM
- GI50 (CNS cancer): 9.99 µM
- CC50 (CNS cancer): 48.4 µM
- GI50 (SK-MEL-2): 5.64 µM
- CC50 (SK-MEL-2): 49.2 µM
- TGI (SK-MEL-2): 19.7 µM
- GI50 (SW-620; Homo sapiens): 2.94 µM
- TGI (SW-620): 9.66 µM
